In patent US10791740B2, “Enhancement of antibiotic efficacy” (priority 2014, dated 2020):
Values after ≈ are worked out from the molar mass of the structure shown. Where two headings read alike, the source gives them in different places.

Legend:
[1] = test system: tetracycline resistant E. coli; assay type: cell-based, Escherichia coli; conditions: for MIC: single agent, Table 5; for MIC (μM) of amphiphile alone: Tables 6 and 7
From the text: (§1) Certain aspects are drawn to a method for increasing or enhancing the antimicrobial activity of an antimicrobial agent. As used herein, the “antimicrobial activity” of an antimicrobial agent is defined as the property of a substance to inhibit the growth and reproduction of a microbial organism or to kill it. Common terms generally applied to bacteria are bacteriostatic (stops growth) and bactericidal (kills bacteria). Depending on the concentrations applied, microbial growth can be slowed or stopped in comparison to concurrent experiments conducted in the absence of an antimicrobial agent. Depending on the concentrations applied, additional microbe death can occur in comparison to concurrent experiments conducted in the absence of an antimicrobial agent. […] The MIC is the lowest concentration of any agent having antimicrobial activity that inhibits the growth of a microorganism as judged by visual inspection. MIC can be determined by inoculating media with the organism and adding the antimicrobial agent diluted successively in half.
(§2) Among the organisms studied are several strains of the bacterium E. coli.
N,N′-Dibenzyl-4,13-diaza-18-crown-6 is referred to in the table as dibenzyldiaza-18-crown-6.
(§3) Minimal Inhibitory Concentration (MIC) Procedure. […] Prepare initial concentration of all the compounds required. • 5. […] Vortex each test tube for 2-3 seconds. • 11.

E. coli [2] = assay: MIC determination, E. coli (Table 1); assay type: cell-based, Escherichia coli; conditions: single agent
From the text: as §1, §2, §3

B. stubtilis = assay: MIC determination, B. subtilis (Table 1); assay type: cell-based, Bacillus subtilis; conditions: single agent
From the text: (§4) Certain aspects are drawn to a method for increasing or enhancing the antimicrobial activity of an antimicrobial agent. As used herein, the “antimicrobial activity” of an antimicrobial agent is defined as the property of a substance to inhibit the growth and reproduction of a microbial organism or to kill it. Common terms generally applied to bacteria are bacteriostatic (stops growth) and bactericidal (kills bacteria). Depending on the concentrations applied, microbial growth can be slowed or stopped in comparison to concurrent experiments conducted in the absence of an antimicrobial agent. Depending on the concentrations applied, additional microbe death can occur in comparison to concurrent experiments conducted in the absence of an antimicrobial agent. The results of minimum inhibitory concentration (MIC) evaluations and growth curves are presented herein and the conditions are specified. The MIC is the lowest concentration of any agent having antimicrobial activity that inhibits the growth of a microorganism as judged by visual inspection. MIC can be determined by inoculating media with the organism and adding the antimicrobial agent diluted successively in half. […] Reference herein to increasing or enhancing activity, efficacy, potency, and the like are used interchangeably to mean that when the synthetic amphiphile is present, the ability of the antimicrobial agent to inhibit the growth of or to kill an organism will be manifested at a concentration lower than would be required to achieve the same results in the absence of said synthetic amphiphile.
(§5) Among the organisms studied are several strains of the bacterium E. coli. […] Experiments were conducted to determine the MIC values for the synthetic amphiphiles known as lariat ethers according to the procedures described in Antimicrobial M07-A9: Methods for Dilution Antimicrobial Susceptibility Tests for Bacteria that Grow Aerobically; Clinical and Laboratory Standards Institute, 2012; Vol. 32, 67 pp. MIC values so determined for several lariat ethers and for several antibiotics are shown in Table 1.

S. cerevisiae = assay: MIC determination, S. cerevisiae (Table 1); assay type: cell-based, Saccharomyces cerevisiae; conditions: single agent
From the text: as §4, §5

DH5α E. coli [3] = assay: Inhibitory concentration (IC50) to DH5α E. coli cells (FIG. 4); assay type: cell-based, Escherichia coli
From the text: Two commonly used abbreviations are LD50 and IC50. The former is the concentration of an agent that comprises a lethal dose to 50% of the organism under study. The latter is the concentration of agent that inhibits growth of 50% of the organism under study. […] The abscissa represents the number of (CH2) groups in spacer chains. The ordinate is logarithmic and reflects the concentrations (in μM) of the various lariat ethers used.

K-12 E. coli [4] = assay: Combination of amphiphile and antibiotic against K-12 E. coli
K-12 E. coli [5] = assay: MIC of single agents against K-12 E. coli
DH5α E. coli [6] = assay: Combination of lariat ether and antibiotic against DH5α E. coli; conditions: 0.4 vol-% DMSO
[7] = test system: tetracycline resistant E. coli
E. coli [8] = conditions: Journal of the American Chemical Society 2002, 124, 9022-3, cited from earlier work
HEK-293 cells = assay: MTT assay of toxicity to HEK-293 cells
Method: The toxicity of C6. C8, C10. C11 and C14 lariat ethers to HEK-293 cells was determined by using an MTT assay. […] The abscissa is a logarithmic scale for the concentrations ranging from 1 μM to 1000 μM (1 mM) used in the experiment. The ordinate represents percent survival of HEK-293 cells.
Growth medium containing DMEM with high glucose (ATCC). 10% fetal bovine serum (FBS: Sigma-Aldrich) and 10 μg/mL of blasticidin (Thermo-Fischer) was prepared. HEK 293 cells were thawed out from cryo-preserved samples in 10 mL growth media, centrifuged at 500 rpm for 10 minutes to remove preservative. The cells were then resuspended in fresh growth medium and cultured using a T-75 flask (Thermo-Fischer) at 37° C. and 5% CO2. Cells were monitored for confluence and growth medium was replaced every 48 h, until cells were placed onto a 96-well plate for toxicity studies.
After reaching 80-90% confluence, cells were trypsinized and suspended in media containing DMEM and 10% FBS (no antibiotics). The cells were counted on a hemacytometer and plated at a density of 20,000 cells per well in a 96-well plate and grown for 24 hours to reach 60-70% confluence. DMSO stocks of C6, C8, C10, C11 and C14 diaza-18-crown-6 lariat ethers were prepared at […] and diluted 1:10 to get working concentrations of 20 mM, 2 mM, and 0.2 mM. Each stock was further diluted […] into DMEM supplemented with 10% FBS to get final concentrations of 1 mM, 0.1 mM, 0.01 mM (10 μM) and 0.001 mM (1 μM). The original media was then removed from the cells and replaced with 200 μL media containing the desired concentration of compound. Three wells were used for each concentration providing experimental triplicates. […] The absorbance was measured at 570 nm and nonspecific absorbance was corrected at 650 nm, using SpectraMax340 micro plate reader.
The experiment was performed in triplicate and the average of percent survival of three experiments was determined. […] The lethal dose 50 (LD50) for each compound was calculated by using the equation for a logarithmic regression curve.

DH5α E. coli [9] = assay: MIC of single agents against DH5α E. coli; assay type: cell-based, Escherichia coli; conditions: for MIC to DH5α E. coli: single agent, values of the running text
From the text: as §1, §2, §3

In the case of `c1ccc(CN2CCOCCOCCN(CCCCCCCCCCCCCCN3CCOCCOCCN(CCCCCCCCCCCCCCN4CCOCCOCCN(Cc5ccccc5)CCOCCOCC4)CCOCCOCC3)CCOCCOCC2)cc1` [C14 hydraphile], the “MIC” value [1] is reported as 2 ± 0.125 µM (≈ 2.71 µg/mL) and the “MIC (μM) of amphiphile alone” value ([1]; tetracycline resistant E. coli) is reported as 2 µM.

`CC[C@H]1OC(=O)[C@H](C)[C@@H](O[C@H]2C[C@@](C)(OC)[C@@H](O)[C@H](C)O2)[C@H](C)[C@@H](O[C@@H]2O[C@H](C)C[C@H](N(C)C)[C@H]2O)[C@](C)(O)C[C@@H](C)C(=O)[C@H](C)[C@@H](O)[C@]1(C)O` [erythromycin, reference compound] showed an MIC (E. coli [2]; Escherichia coli) of over 400 µM.

With “N,N′-di-n-tetradecyl-4,13-diaza-18-crown-6 [C14 lariat ether]” the “MIC (μM) B. stubtilis” value (B. stubtilis) was over 300 µM, the MIC (E. coli [2]) was over 300 µM and the “MIC (μM) S. cerevisiae” value (S. cerevisiae) was over 300 µM. The “activity against E. coli” value (DH5α E. coli [3]; at 180 μM) was “inactive”.

In the case of `CO[C@H]1/C=C/O[C@@]2(C)Oc3c(C)c(O)c4c(O)c(c(/C=N/N5CCN(C)CC5)c(O)c4c3C2=O)NC(=O)/C(C)=C\C=C\[C@H](C)[C@H](O)[C@@H](C)[C@@H](O)[C@@H](C)[C@H](OC(C)=O)[C@@H]1C` [rifampicin, reference compound], the “Antibiotic Used (μM) in combination” value (K-12 E. coli [4]; Rifampicin with 6 μM C11 lariat ether) is reported as 10 µM, the “MIC (μM) of antibiotic alone” value (K-12 E. coli [5]) is reported as 20 µM and the “Antibiotic Used (μM) in combination” value (DH5α E. coli [6]; rifampicin with 8 μM n-C11 lariat ether) is reported as 15 µM. For the same compound, the “Antibiotic Used (μM) in combination” value (DH5α E. coli [6]; rifampicin with 12 μM n-C11 lariat ether) was 6 µM, the “Antibiotic Used (μM) in combination” value (DH5α E. coli [6]; rifampicin with 16 μM n-C11 lariat ether) was 6 µM and the “Antibiotic Used (μM) in combination” value (DH5α E. coli [6]; rifampicin with 18 μM n-C11 lariat ether) was 3 µM.

For `CN(C)[C@@H]1C(O)=C(C(N)=O)C(=O)[C@@]2(O)C(O)=C3C(=O)c4c(O)cccc4[C@@](C)(O)[C@H]3C[C@@H]12` [tetracycline, reference compound], the “Antibiotic Used (μM) in combination” value (K-12 E. coli [4]; Tetracycline with 6 μM C11 lariat ether) was 2.5 µM, the “MIC (μM) of antibiotic alone” value (K-12 E. coli [5]) was 6 µM and the “Antibiotic Used (μM) in combination” value ([7]; Tetracycline with 8 μM C11 lariat ether) was 175 µM. The “Antibiotic Used (μM) in combination” value ([7]; Tetracycline with 12 μM C11 lariat ether) was 87 µM, the “Antibiotic Used (μM) in combination” value ([7]; Tetracycline with 16 μM C11 lariat ether) was 87 µM and the “Antibiotic Used (μM) in combination” value ([7]; Tetracycline with 18 μM C11 lariat ether) was 87 µM. For the same compound, the “MIC (μM) of antibiotic alone” value ([1]; tetracycline resistant E. coli) was about 900 µM, the “Antibiotic Used (μM) in combination” value (DH5α E. coli [6]; tetracycline with 4 μM n-C11 lariat ether) was 3 µM and the “Antibiotic Used (μM) in combination” value (DH5α E. coli [6]; tetracycline with 12 μM n-C11 lariat ether) was 1 µM. For the same compound, the “Antibiotic Used (μM) in combination” value (DH5α E. coli [6]; tetracycline with 16 μM n-C11 lariat ether) was 0.25 µM and the “Antibiotic Used (μM) in combination” value (DH5α E. coli [6]; tetracycline with 18 μM n-C11 lariat ether) was 1.5 µM.

In the case of `c1ccc(CN2CCOCCOCCN(CCCCCCCCCCCCN3CCOCCOCCN(CCCCCCCCCCCCN4CCOCCOCCN(Cc5ccccc5)CCOCCOCC4)CCOCCOCC3)CCOCCOCC2)cc1` [C12 hydraphile], the “MIC” value [1] is given as 5 ± 0.5 µM (≈ 6.5 µg/mL), the “MIC (μM) of amphiphile alone” value ([1]; tetracycline resistant E. coli) is given as 5 µM and the “toxicity to E. coli” value (E. coli [8]; listed as C12 benzyl hydraphile) is given as “killed E. coli”. For the same compound, the “toxicity to E. coli” value (E. coli [8]; listed as benzyl C12 hydraphile) was “killed the bacteria”.

In the case of “N,N′-di-n-decyl-4,13-diaza-18-crown-6 [C10 lariat ether]”, the “MIC (μM) of amphiphile alone” value (K-12 E. coli [5]) is reported as 12 µM, the “MIC (μM) B. stubtilis” value (B. stubtilis) is reported as 2.8 µM and the “MIC” value [1] is reported as 16 µM. For the same compound, the “MIC (μM) of amphiphile alone” value ([1]; tetracycline resistant E. coli) was 16 µM, the MIC (E. coli [2]) was 11 µM and the “MIC (μM) S. cerevisiae” value (S. cerevisiae) was 2.8 µM. The “toxicity to HEK-293, rank among lariat ethers” value (HEK-293 cells; C6 to C14 lariat ethers compared) was “highest toxicity” and the “MIC to DH5α E. coli” value (DH5α E. coli [9]) was 12 µM.

In the case of “N,N′-di-n-dodecyl-4,13-diaza-18-crown-6 [C12 lariat ether]”, the “MIC (μM) of amphiphile alone” value (K-12 E. coli [5]) is reported as over 512 µM, the “MIC (μM) B. stubtilis” value (B. stubtilis) is reported as 2.5 µM and the “MIC (μM) of amphiphile alone” value ([1]; tetracycline resistant E. coli) is reported as over 512 µM. The MIC (E. coli [2]) was over 300 µM, the “MIC (μM) S. cerevisiae” value (S. cerevisiae) was 2.5 µM and the “toxicity to DH5α E. coli cells” value (DH5α E. coli [9]; previous studies) was “did not show toxicity”.

`NC[C@H]1O[C@H](O[C@H]2[C@H](O)[C@@H](O[C@H]3O[C@H](CO)[C@@H](O)[C@H](N)[C@H]3O)[C@H](N)C[C@@H]2N)[C@H](N)C[C@@H]1O` [tobramycin, reference compound] showed an MIC (E. coli [2]; Escherichia coli) of 15 µM (≈ 7.01 µg/mL).

With “N,N′-di-n-octyl-4,13-diaza-18-crown-6 [C8 lariat ether]” the “MIC (μM) of amphiphile alone” value (K-12 E. coli [5]) was 300 µM, the “MIC (μM) B. stubtilis” value (B. stubtilis) was 105 µM and the “MIC” value [1] was 120 µM. The “MIC (μM) of amphiphile alone” value ([1]; tetracycline resistant E. coli) was 120 µM, the MIC (E. coli [2]) was 120 µM and the “MIC (μM) S. cerevisiae” value (S. cerevisiae) was 25 µM. For the same compound, the IC50 (DH5α E. coli [3]; DH5α E. coli, FIG. 4) was 150 µM, the “LD50 to HEK-293” value (HEK-293 cells) was 33 µM and the “MIC (μM) of lariat ether alone” value (DH5α E. coli [9]; DH5α E. coli, Tables 2 and 3) was over 120 µM. The “MIC to DH5α E. coli” value (DH5α E. coli [9]) was over 240 µM and the “MIC to DH5α E. coli” value (DH5α E. coli [9]; listed as C8 Lariat) was 120 µM.
